Test results published in ChEMBL document CHEMBL1201862, “PubChem BioAssay data set” (2004).
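Compound exposure: 48 hours, 5 concentrations, 96-well plates. Here, GI50 denotes the concentration required for 50% inhibition of growth.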 The source made the active and inactive calls. No stated cut-off is given here; in the data, active = GI50 up to about 1.1 µM and inactive = higher.

What was measured:
Test in all cases: growth of human tumour cells (NCI), 48 h
[1] = system: HOP-62
[2] = system: SR
[3] = system: OVCAR-4
[4] = system: MDA-MB-435
[5] = system: RPMI-8226
[6] = system: HL-60
[7] = system: EKVX
[8] = system: UACC-62
[9] = system: Hs-578T
[10] = system: K562
[11] = system: PC-3
[12] = system: KM12
[13] = system: Malme-3M
[14] = system: M14
[15] = system: MDA-N
[16] = system: NCI/ADR-RES
[17] = system: SNB-19
[18] = system: IGROV-1
[19] = system: CAKI-1
[20] = system: SK-OV-3
[21] = system: COLO 205
[22] = system: T47D
[23] = system: U-251
[24] = system: SW-620
[25] = system: A549
[26] = system: OVCAR-3
[27] = system: CCRF-CEM
[28] = system: MOLT-4
[29] = system: TK-10
[30] = system: SK-MEL-5
[31] = system: SF-295
[32] = system: ACHN
[33] = system: NCI-H460
[34] = system: SK-MEL-28
[35] = system: OVCAR-8
[36] = system: DU-145
[37] = system: MCF7
[38] = system: NCI-H522
[39] = system: SF-268
[40] = system: HT-29
[41] = system: UO-31
[42] = system: HCT-116
[43] = system: OVCAR-5
[44] = system: HCT-15
[45] = system: UACC-257
[46] = system: HCC 2998
[47] = system: A498
[48] = system: LOX IMVI
[49] = system: MDA-MB-231

CC[C@@H](CCCCC1CC[C@H]2CC(=O)C[C@@H]12)OC (stereo partly specified)
GI50 [1]: > 100 µM (inactive)
GI50 [2]: > 100 µM (inactive)
GI50 [3]: > 100 µM (inactive)
GI50 [4]: > 100 µM (inactive)
GI50 [5]: > 100 µM (inactive)
GI50 [6]: 36 µM (inactive)
GI50 [7]: > 100 µM (inactive)
GI50 [8]: > 100 µM (inactive)
GI50 [9]: > 100 µM (inactive)
GI50 [10]: 33.7 µM (inactive)
GI50 [11]: > 100 µM (inactive)
GI50 [12]: > 100 µM (inactive)
GI50 [13]: > 100 µM (inactive)
GI50 [14]: > 100 µM (inactive)
GI50 [15]: > 100 µM (inactive)

COc1ccc(-c2oc3cc(OC(C)=O)cc(OC(C)=O)c3c(=O)c2OC)cc1
GI50 [16]: 14.7 µM (inactive)
GI50 [17]: 19 µM (inactive)
GI50 [18]: 16.2 µM (inactive)
GI50 [1]: 18.1 µM (inactive)
GI50 [19]: 4.04 µM (inactive)
GI50 [20]: 28.8 µM (inactive)
GI50 [21]: 15.9 µM (inactive)
GI50 [22]: 19.7 µM (inactive)
GI50 [23]: 14.2 µM (inactive)
GI50 [2]: 13.5 µM (inactive)
GI50 [24]: 16.1 µM (inactive)
GI50 [25]: 20.7 µM (inactive)
GI50 [4]: 10.4 µM (inactive)
GI50 [26]: 15 µM (inactive)
GI50 [5]: 12.5 µM (inactive)
GI50 [6]: 12.1 µM (inactive)
GI50 [7]: 13.9 µM (inactive)
GI50 [27]: 18.2 µM (inactive)
GI50 [8]: 4.19 µM (inactive)
GI50 [28]: 20.2 µM (inactive)
GI50 [29]: 21.8 µM (inactive)
GI50 [30]: 12.4 µM (inactive)
GI50 [31]: 15.9 µM (inactive)
GI50 [32]: 17 µM (inactive)
GI50 [10]: 9.77 µM (inactive)
GI50 [33]: 16.9 µM (inactive)
GI50 [34]: 13.7 µM (inactive)
GI50 [35]: 17 µM (inactive)
GI50 [11]: 17.9 µM (inactive)
GI50 [36]: 15.5 µM (inactive)
GI50 [37]: 20.7 µM (inactive)
GI50 [38]: 2.12 µM (inactive)
GI50 [39]: 15.4 µM (inactive)
GI50 [40]: 16.7 µM (inactive)
GI50 [41]: 19.6 µM (inactive)
GI50 [42]: 21 µM (inactive)
GI50 [43]: 23.3 µM (inactive)
GI50 [44]: 20.8 µM
GI50 [13]: 26.5 µM (inactive)
GI50 [45]: 19.7 µM (inactive)
GI50 [46]: 18.3 µM (inactive)
GI50 [47]: 21.7 µM (inactive)
GI50 [14]: 14.5 µM (inactive)
GI50 [48]: 14.5 µM (inactive)
GI50 [49]: 22 µM (inactive)
GI50 [15]: 12.7 µM (inactive)
